Source: US20120282676A1, “Compositions and Methods for Enhancing Lipid Production in Marine Microalgae” (Old Queens, priority 2011, published 2012)

Columns and labels:
[1] = system: nitrate reductase (NR) protein; assay: NR western-blot; assay type: cell-based, Phaeodactylum tricornutum; settings: FIG. 2
Description: Protein concentrations were determined with the bicinchoninic acid method (BCA, Pierce). […] Blots were probed for 1 h with anti-NR assimilatory (1:500) purchased from Agrisera (part no. AS08-310). Subsequently, an HRP-conjugated polyclonal goat anti-rabbit IgC antibody (Pierce, 1:10000) was used followed by chemifluorescence detection (Amersham™ ECL Plus, RPN2132). Image acquisition was performed with a molecular imager XR+ system (BIORAD, USA).

[2] = system: Phaeodactylum tricornutum; assay: Growth of P. tricornutum cultures in different nitrogen regimes (cell densities, Coulter counter); assay type: cell-based; settings: relative to the control (NO3+Mo)
Description: This was also the reason to perform all experiments in artificial medium. […] During the period of acclimation the cultures were maintained at 18° C., under continuous light using liner cool fluorescent lamps emitting white light at 300 μmol quanta·m^-2·s^-1, and 0.2 μm filtered air bubbling. Periodic dilutions with fresh media were also executed to main the cells in exponential phase of growth. […] The light intensity and temperature were maintained as described above. After 3 days (72 h) of growth samples were collected and processed for further analyses (described bellow). Experiments were performed at least in triplicate. The cellular densities were monitored with a Coulter counter multisizer 3 (Beckman Coulter Inc, Fullerton, Calif., USA).

[3] = system: Phaeodactylum tricornutum; assay: Lipid body imaging (BODIPY, epifluorescence microscopy); assay type: cell-based; settings: BODIPY staining, FIG. 4
Description: Intracellular lipid bodies were stained with 10 μg·ml^-1 BODIPY (4,4-difluoro-3a, 4a-diaza-s-indacene) probe (D-3922, Molecular Probes, Invitrogen, USA). Cells were subsequently observed with an inverted epifluorescence microscope Olympus IX71 (Olympus, Japan) equipped with a mercury X-CITE 120 lamp (EXFO, Canada), using the 482/536 nm excitation/emission filter. Images were acquired with a […] high-speed monochromatic cooled CCD camera system and IPLab for Mac (v3.9) for image processing and analysis.

[4] = system: Phaeodactylum tricornutum; settings: preliminary LC-MS analyses, FIG. 6
Description: FIG. 6. Liquid-chromatography mass-spectrometry (LC-MS) plot representing the relative content of triacylglycerides (TAG) species between cells growing with nitrate or ammonium as nitrogen sources. Total lipids from P. tricronutum cells growing with nitrate or ammonium as nitrogen source (from the experiments described in the main text) were extracted with the Bligh-Dyer method (Bligh and Dyer) and analysed by liquid-chromatography mass-spectrometry (LC-MS).

[5] = system: Phaeodactylum tricornutum; assay: Fatty acids extraction and analysis (FAME, GC-FID); assay type: cell-based; settings: for more fatty acid per cell than the control: relative to NO3− replete cells (control)
Description: Fatty acid methyl esters (FAME) extraction and methylation was based on a method developed by Rodriguez-Ruiz et al., 1998. […] The vials were sealed with a Teflon-lined cap and boiled in a water-bath for 1 h. After incubation the vials were cooled to room temperature and 1 ml of milliQ water was added to each sample. Samples were vortexed and centrifuged (5 min, 3000 rpm) to allow phase separation and the top […] phases were transferred with glass-pipettes to GC vials with Teflon-lined caps (Fisher Scientific). FAME analyses were performed in a gas-chromatographer (GC 2010 Shimadzu, Japan) equipped with a TR-FAME (0.25 μm×60 m) column (Thermo electron corporation, USA) and a flame ionization detector (FID). Helium was used as the carrier gas at 26 psi. The injector and detector temperatures were 240° C. and 250° C. respectively. The time-oven temperature program was: 140° C. (5 min) increasing up to 240° C. at 4° C.·min^-1. FAMEs were identified by reference to authentic standards (SupelcoTM 37 component FAME, Sigma-Aldrich) processed and analyzed under the same conditions.

[6] = system: Selenastrum capricornutum; settings: sodium tungsten in small concentration (≦400 μM); Strigul et al. 2009; cited from earlier work
[7] = system: Phaeodactylum tricornutum; assay: Metabolite profiling (LC-MS/MS); assay type: cell-based; settings: W-mediated NR inactivation of NO3− grown cells
Description: Metabolite profiles were obtained via the method described by Bennette et al. (2010). Cells were quenched via rapid filtration of 14.3 million cells followed by immediate transfer of filters to 1.8 mL of 80:20 methanol:water at −20° C. in 35×10 mm Petri dishes. Filters were incubated at −20° C. for 15 minutes and scraped clean of cells in the extraction solvent. The 1.8 mL of extraction solvent with cells was transferred to 2 mL eppendorf tubes, followed by a 0.25 mL 80:20 methanol:water at −20° C. wash of the filter to collect remaining quenched cell material. The eppendorf tubes were spun at 4° C., and supernatant was collected. To the cell pellet, 100 μL 80:20 methanol:water at −20° C. was added, vortexed, incubated at −20° C. for 15 minutes, and pelletted. The 100 μL was combined with the original supernatant, and 50 μL transferred to GC vials. […] Standards for each metabolite, run with sample background, were used for quantification. The column used was a Synergi 2.5μ hydro RP 100A, size 100×2 mm (Phenomonex, Torrance, Calif., USA).

| SMILES | more total fatty acid than with NO3− (Dunaliella terciolecta; D. terciolecta, NH4+ as nitrogen source) | NR protein band (approximately 100 kDa) in western-blot [1] | decrease of growth rate [2] | number of lipid bodies per cell [3] | TAG species relative to NO3− grown cells [4] | more fatty acid per cell than the control ([5]; 3 days) | effect on growth [6] | average growth rate (Dunaliella terciolecta; D. terciolecta, W in conjunction with NH4+) | more fatty acid per unit volume than nitrate-grown cultures (Dunaliella terciolecta; D. terciolecta, W in conjunction with NH4+, after 3 days, FIG. 7) | higher rates of lipid production per unit biomass than in controlled conditions (Dunaliella terciolecta; tungsten in combination with ammonium, organism not given) | glutamate and glutamine levels, share of control levels [7] | Fatty acids cell^−1 (total fatty acid) ([5]; P. tricornutum, 3 days, mean ± SD, n ≧ 3) | higher rate of fatty acid accumulated per unit volume ([5]; W added to NH4+ growing cultures, compared to all the other situations, FIG. 1B) |
| --- | --- | --- | --- | --- | --- | --- | --- | --- | --- | --- | --- | --- | --- |
| Cl.N [NH4+, NH4Cl] | 13% | weak band | 10% | very high numbers | all TAG species of P. tricornutum NH4+ grown cells increase | ≥ 40% | – | – | – | – | – | – | – |
| [Na+].[Na+].[O]=[W](=[O])([O-])[O-] [W, sodium tungsten] | – | – | – | – | – | 40% | stimulated growth | increased the average growth rate | 88% | 87% | about 10% | 3.99 ± 0.24 pg | over 30% |
